In paper PMC11790914, “Chemogenomics for steroid hormone receptors (NR3)” (Communications Chemistry, 2025):
“And” between values parts separate entries of the source, which are not always exact repeats. Identical values can stand only once.

Legend:
HEK293T cells [1] = experiment: Cytotoxicity: metabolic activity (WST-8 / CCK-8 assay); details: 1 µM; HEK293T, 24 h; WST-8; normalized to 0.1% DMSO; single replicates
Procedure: Cells were incubated with the test compounds at the indicated concentrations solubilized with 0.1% DMSO for 24 h. Growth-rate was determined based on the change in confluence over 24 h normalized to the change in confluence of cells treated with the 0.1% DMSO control (n = 10). Metabolic activity was determined with a water-soluble tetrazolium-8 (WST-8) assay (n = 8) after 24 h treatment. Apoptotic cells were detected with a fluorogenic DNA dye coupled to the caspase-3/7 recognition sequence (DEVD) after 24 h treatment and the apoptotic cell count was normalized to 0.1% DMSO treated cells (n = 6).
HEK293T cells (German Collection of Microorganisms and Cell Culture GmbH, DSMZ; #ACC305) were cultured in DMEM high glucose, supplemented with 10% fetal calf serum (FCS), sodium pyruvate (1 mM), penicillin (100 µ/mL) and streptomycin (100 µg/mL) at 37 °C and 5% (v/v) CO2, and seeded in pre-coated (10 µg/mL collagen G solution (Merck KgaA; #L7213) for 30 min at 37 °C) 96-well plates (2 × 10^5 cells per well). After 24 h, the cells were treated with the respective NR3 CG compound candidate at the recommended concentration, bexarotene (100 µM) or doxorubicin (30 µM) as positive controls in DMEM high glucose supplemented with 0.1% FCS, penicillin (100 µ/mL), streptomycin (100 µg/mL) and 0.1% DMSO, or 0.1% DMSO alone as an untreated control. Each sample was prepared in at least four biologically independent replicates. […] Thereafter, the medium was aspirated and the cells were incubated for 3 h with 90 µL DMEM high glucose supplemented with 0.2% FCS, penicillin (100 µ/mL) and streptomycin (100 µg/mL) and additionally containing 10 µL Cell Counting Kit 8 solution (CCK-8; MedChemExpress, Monmouth Junction, New York, USA; #HY-K0301), and absorbance was measured at 1 h, 2 h and 3 h of incubation at 450 nm on a Tecan Spark Cyto to assess metabolic activity of the cells. Before drug administration, after the first medium exchange, 24 h after drug administration, and after fluorescence imaging cell confluence was assessed using the Tecan Spark Cyto, to account for changes in cell confluence due to drug administration and cell handling. Compound effects on cell confluence, apoptosis, metabolic activity and necrosis were normalized to the vehicle control of each biological replicate individually.

TRIM24 = target: T1, TRIM24 (Homo sapiens, UniProt O15164); experiment: Liability panel screening by DSF: TRIM24; assay type: binding; details: DSF, 20 µM, n=2; read-out: Mean ΔTM TRIM24
T1 construct: This panel comprised ten highly ligandable kinases and bromodomains; made in house
T1 sequence (O15164 899-1004 limits assumed): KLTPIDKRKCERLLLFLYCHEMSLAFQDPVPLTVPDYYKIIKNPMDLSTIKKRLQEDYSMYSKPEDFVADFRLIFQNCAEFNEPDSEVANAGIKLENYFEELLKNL
Method in brief: (§1)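 ∆Tm in K was taken from Boltzmann-fitted unfolding inflection points, run in duplicate with a temperature ramp of 3 °C per minute up to 85 °C. Each recombinant protein (2 µM) was in HEPES 10 mM pH 7.5 and NaCl 500 mM, with SYPRO Orange dye at 1:1000.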

FGFR3 = target: T2, FGFR3 (Homo sapiens, UniProt P22607); experiment: Liability panel screening by DSF: FGFR3; assay type: binding; details: DSF, 20 µM, n=2; read-out: Mean ΔTM FGFR3
T2 construct: made in house
Method in brief: as §1

HEK293T cells [2] = experiment: Cytotoxicity: growth-rate (change in confluence over 24 h); details: 1 µM, normalized to 0.1% DMSO control, single replicates (n=1...)
NR3C1 (GR) = details: (lit.); ref Supplementary Table 1; read-out: Potency [nM] EC50, NR3C1 (GR); cited from earlier work
HEK293T cells [3] = experiment: Cytotoxicity: necrosis induction (red fluorescent dye for permeable plasma membranes); assay type: cell-based; details: 1 µM, 24 h, necrotic cell count normalized to 0.1% DMSO, single replicates;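 further: compounds applied in DMEM high glucose with 0.1% FCS and 0.1% DMSO, necrotic HEK293T cells counted by red staining of cells whose plasma membranes had become permeable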
Procedure: Cells were incubated with the test compounds at the indicated concentrations solubilized with 0.1% DMSO for 24 h. […] Necrotic cells were detected with a red fluorescent dye that labels cells with permeable plasma membranes after 24 h treatment and the necrotic cell count was normalized to 0.1% DMSO treated cells (n = 4). e NR family selectivity profiling of NR3 CG compound candidates in uniform Gal4-hybrid reporter gene assays for selected NR representing the NR1, NR2, NR4 and NR5 families.
HEK293T cells (German Collection of Microorganisms and Cell Culture GmbH, DSMZ; #ACC305) were cultured in DMEM high glucose, supplemented with 10% fetal calf serum (FCS), sodium pyruvate (1 mM), penicillin (100 µ/mL) and streptomycin (100 µg/mL) at 37 °C and 5% (v/v) CO2, and seeded in pre-coated (10 µg/mL collagen G solution (Merck KgaA; #L7213) for 30 min at 37 °C) 96-well plates (2 × 10^5 cells per well). After 24 h, the cells were treated with the respective NR3 CG compound candidate at the recommended concentration, bexarotene (100 µM) or doxorubicin (30 µM) as positive controls in DMEM high glucose supplemented with 0.1% FCS, penicillin (100 µ/mL), streptomycin (100 µg/mL) and 0.1% DMSO, or 0.1% DMSO alone as an untreated control. Each sample was prepared in at least four biologically independent replicates. […] Before drug administration, after the first medium exchange, 24 h after drug administration, and after fluorescence imaging cell confluence was assessed using the Tecan Spark Cyto, to account for changes in cell confluence due to drug administration and cell handling. Compound effects on cell confluence, apoptosis, metabolic activity and necrosis were normalized to the vehicle control of each biological replicate individually.

AURKA = target: T3, AURKA (Homo sapiens, UniProt O14965); experiment: Liability panel screening by DSF: AURKA; assay type: binding; details: DSF, 20 µM, n=2; read-out: Mean ΔTM AURKA
T3 construct: made in house
T3 sequence (O14965 1-403): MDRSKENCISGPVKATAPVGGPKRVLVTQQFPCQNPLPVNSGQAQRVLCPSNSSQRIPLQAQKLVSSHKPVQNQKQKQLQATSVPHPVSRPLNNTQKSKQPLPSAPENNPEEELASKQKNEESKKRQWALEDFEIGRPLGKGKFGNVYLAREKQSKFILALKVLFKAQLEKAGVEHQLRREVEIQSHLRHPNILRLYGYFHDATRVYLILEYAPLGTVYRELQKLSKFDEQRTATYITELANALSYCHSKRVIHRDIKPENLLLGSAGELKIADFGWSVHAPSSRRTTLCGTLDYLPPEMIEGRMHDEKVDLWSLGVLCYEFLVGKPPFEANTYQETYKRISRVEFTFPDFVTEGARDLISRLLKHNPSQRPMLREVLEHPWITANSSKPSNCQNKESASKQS
Method in brief: as §1

ABL1 = target: T4, ABL1 (Homo sapiens, UniProt P00519); experiment: Liability panel screening by DSF: ABL1; assay type: binding; details: DSF, 20 µM, n=2; read-out: Mean ΔTM ABL1
T4 construct: made in house
Method in brief: as §1

Gal4-VP16 = assay type: cell-based; details: 1 µM; vs. DMSO ctrl; single replicates n=1-3
CSNK1D = target: T5, CSNK1D (Homo sapiens, UniProt P48730); experiment: Liability panel screening by DSF: CSNK1D; assay type: binding; details: DSF, 20 µM, n=2; read-out: Mean ΔTM CSNK1D
T5 construct: made in house
Method in brief: as §1

[4] = test system: ATF6 activity in Hela ATF6 reporter cells; experiment: Endoplasmic reticulum stress assay (ATF6 Renilla luciferase reporter, tunicamycin); assay type: cell-based; details: for ATF6 activity (tunicamycin-induced endoplasmic reticulum stress): Hela ATF6 reporter cells, tunicamycin 100 ng/mL, 18 h, compounds at recommended concentrations, n = 5; for activity at 1 µM: Homo sapiens, HeLa, single replicates n=1 to n=5, read-out: ER stress [rel. ATF6 activity]
Method in brief: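 HeLa ATF6 Renilla reporter cells were pretreated 4 h with compounds in 0.1% DMSO, then stimulated with tunicamycin (100 ng/mL) for 18 h. Renilla luminescence (DualGlo) was normalized to 0.1% DMSO control; five independent experiments.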

BRD4 = target: T6, BRD4 (Homo sapiens, UniProt O60885); experiment: Liability panel screening by DSF: BRD4; assay type: binding; details: DSF, 20 µM, n=2; read-out: Mean ΔTM BRD4
T6 construct: This panel comprised ten highly ligandable kinases and bromodomains; made in house
Method in brief: as §1

GSK3B = target: T7, GSK3B (Homo sapiens, UniProt P49841); experiment: Liability panel screening by DSF: GSK3B; assay type: binding; details: DSF, 20 µM, n=2; read-out: Mean ΔTM GSK3B
T7 construct: made in house

HEK293T cells [5] = experiment: Cytotoxicity: apoptosis induction (caspase-3/7 DEVD fluorogenic DNA dye); details: 1 µM; HEK293T, 24 h; apoptotic cell count normalized to 0.1% DMSO; single replicates
CDK2 = target: T8, CDK2 (Homo sapiens, UniProt P24941); experiment: Liability panel screening by DSF: CDK2; assay type: binding; details: DSF, 20 µM, n=2; read-out: Mean ΔTM CDK2
T8 construct: made in house
Method in brief: as §1

[6] = test system: NF-κB activity in HEK293 NF-κB reporter cells; experiment: NF-kB activity assay (GFP reporter, ionomycin/PMA); assay type: cell-based; details: for Mean NFκB response: n=3; for NF-κB activity (inflammatory response to ionomycin/PMA): HEK293 NF-κB reporter cells, compounds at recommended concentrations, imaged over 24 h, n = 3
Method in brief: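 HEK293 NF-κB GFP reporter cells given compound in 0.1% DMSO for 4 h, then stimulated with ionomycin 100 ng/mL plus PMA 10 ng/mL. Imaged every 90 min over 24 h; GFP-positive cell count normalized to confluence, three independent biological replicates.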

MAPK1 = target: T9, MAPK1 (Homo sapiens, UniProt P28482); experiment: Liability panel screening by DSF: MAPK1; assay type: binding; details: DSF, 20 µM, n=2; read-out: Mean ΔTM MAPK1
T9 construct: made in house
Method in brief: as §1

BRPF1 = target: T10, BRPF1 (Homo sapiens, UniProt P55201); experiment: Liability panel screening by DSF: BRPF1; assay type: binding; details: DSF, 20 µM, n=2; read-out: Mean ΔTM BRPF1
T10 construct: This panel comprised ten highly ligandable kinases and bromodomains; made in house
T10 sequence (P55201 628-732 limits assumed): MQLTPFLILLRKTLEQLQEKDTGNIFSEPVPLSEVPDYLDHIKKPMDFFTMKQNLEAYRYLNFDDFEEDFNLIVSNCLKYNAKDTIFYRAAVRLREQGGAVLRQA
Method in brief: as §1

T2 sequence (P22607 23-806, species assumed): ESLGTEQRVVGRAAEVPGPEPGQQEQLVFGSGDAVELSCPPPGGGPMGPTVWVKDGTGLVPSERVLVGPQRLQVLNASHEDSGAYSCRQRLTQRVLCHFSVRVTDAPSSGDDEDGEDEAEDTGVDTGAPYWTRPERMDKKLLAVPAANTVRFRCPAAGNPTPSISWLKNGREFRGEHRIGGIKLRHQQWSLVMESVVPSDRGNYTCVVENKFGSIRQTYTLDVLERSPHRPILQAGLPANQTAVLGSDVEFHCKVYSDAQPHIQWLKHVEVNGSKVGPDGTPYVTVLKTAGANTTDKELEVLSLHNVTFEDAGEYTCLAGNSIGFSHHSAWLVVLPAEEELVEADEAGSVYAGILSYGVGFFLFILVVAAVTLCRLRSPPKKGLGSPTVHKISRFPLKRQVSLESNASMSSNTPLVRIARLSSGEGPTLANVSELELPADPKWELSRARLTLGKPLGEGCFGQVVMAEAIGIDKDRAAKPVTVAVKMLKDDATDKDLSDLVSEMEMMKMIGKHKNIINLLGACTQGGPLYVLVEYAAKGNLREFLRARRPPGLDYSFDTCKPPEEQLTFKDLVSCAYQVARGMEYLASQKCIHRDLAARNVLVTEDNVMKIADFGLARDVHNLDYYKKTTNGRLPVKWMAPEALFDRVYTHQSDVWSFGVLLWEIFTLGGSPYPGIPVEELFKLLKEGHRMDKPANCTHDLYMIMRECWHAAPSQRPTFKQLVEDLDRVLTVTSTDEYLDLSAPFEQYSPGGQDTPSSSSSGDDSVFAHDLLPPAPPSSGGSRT
T5 sequence (P48730 whole entry, species assumed): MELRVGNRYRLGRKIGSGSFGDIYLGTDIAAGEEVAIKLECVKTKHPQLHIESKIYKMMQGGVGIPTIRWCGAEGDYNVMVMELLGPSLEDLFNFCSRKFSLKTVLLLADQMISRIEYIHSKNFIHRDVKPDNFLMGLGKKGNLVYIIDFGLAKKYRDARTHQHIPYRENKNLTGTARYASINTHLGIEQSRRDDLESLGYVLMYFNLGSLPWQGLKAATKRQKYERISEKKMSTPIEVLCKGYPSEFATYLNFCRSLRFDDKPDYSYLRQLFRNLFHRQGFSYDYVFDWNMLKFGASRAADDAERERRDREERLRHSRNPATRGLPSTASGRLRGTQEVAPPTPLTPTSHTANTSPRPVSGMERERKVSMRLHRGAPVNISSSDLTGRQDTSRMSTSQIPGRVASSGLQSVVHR
T7 sequence (P49841 whole entry, species assumed): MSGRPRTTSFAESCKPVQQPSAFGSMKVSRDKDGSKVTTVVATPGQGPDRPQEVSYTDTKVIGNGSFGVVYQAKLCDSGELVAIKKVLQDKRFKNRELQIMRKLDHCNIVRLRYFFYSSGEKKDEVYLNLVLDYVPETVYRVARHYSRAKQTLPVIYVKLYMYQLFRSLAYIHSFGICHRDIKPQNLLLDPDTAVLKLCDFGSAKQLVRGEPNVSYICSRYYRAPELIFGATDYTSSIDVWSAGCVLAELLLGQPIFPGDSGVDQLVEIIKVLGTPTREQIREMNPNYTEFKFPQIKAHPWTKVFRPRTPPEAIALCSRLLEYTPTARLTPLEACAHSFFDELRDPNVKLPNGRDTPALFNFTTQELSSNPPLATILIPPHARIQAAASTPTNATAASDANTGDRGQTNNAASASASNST
T4 sequence (P00519 whole entry, species assumed): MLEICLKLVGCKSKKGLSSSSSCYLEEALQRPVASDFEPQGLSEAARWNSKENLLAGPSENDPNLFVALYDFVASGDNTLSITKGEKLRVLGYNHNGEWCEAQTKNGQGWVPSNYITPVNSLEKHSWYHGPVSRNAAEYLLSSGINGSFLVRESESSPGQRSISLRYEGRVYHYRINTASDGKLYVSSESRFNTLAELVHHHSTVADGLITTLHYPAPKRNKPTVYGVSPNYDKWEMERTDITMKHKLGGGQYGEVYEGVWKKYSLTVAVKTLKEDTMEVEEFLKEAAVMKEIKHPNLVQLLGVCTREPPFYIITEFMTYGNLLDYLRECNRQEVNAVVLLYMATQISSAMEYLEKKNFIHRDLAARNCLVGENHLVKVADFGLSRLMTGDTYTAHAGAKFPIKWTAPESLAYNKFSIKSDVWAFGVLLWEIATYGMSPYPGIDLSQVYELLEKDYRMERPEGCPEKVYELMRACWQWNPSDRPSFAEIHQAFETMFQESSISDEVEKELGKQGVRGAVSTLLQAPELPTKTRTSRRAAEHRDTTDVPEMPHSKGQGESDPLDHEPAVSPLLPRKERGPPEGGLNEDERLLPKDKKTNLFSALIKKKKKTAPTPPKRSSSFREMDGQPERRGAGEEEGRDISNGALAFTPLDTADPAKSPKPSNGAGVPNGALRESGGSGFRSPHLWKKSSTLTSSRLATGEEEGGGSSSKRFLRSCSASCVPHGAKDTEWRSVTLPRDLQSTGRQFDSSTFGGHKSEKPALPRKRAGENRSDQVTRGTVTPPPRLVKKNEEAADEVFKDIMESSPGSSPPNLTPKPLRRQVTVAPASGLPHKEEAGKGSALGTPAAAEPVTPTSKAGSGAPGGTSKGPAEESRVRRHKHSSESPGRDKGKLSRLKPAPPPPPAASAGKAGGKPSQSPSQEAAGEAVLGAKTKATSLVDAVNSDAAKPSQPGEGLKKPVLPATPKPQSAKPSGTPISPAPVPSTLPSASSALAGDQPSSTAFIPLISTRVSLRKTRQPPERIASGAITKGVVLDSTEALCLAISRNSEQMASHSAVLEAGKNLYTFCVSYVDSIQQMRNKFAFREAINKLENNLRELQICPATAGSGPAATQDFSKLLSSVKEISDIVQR
T9 sequence (P28482 whole entry, species assumed): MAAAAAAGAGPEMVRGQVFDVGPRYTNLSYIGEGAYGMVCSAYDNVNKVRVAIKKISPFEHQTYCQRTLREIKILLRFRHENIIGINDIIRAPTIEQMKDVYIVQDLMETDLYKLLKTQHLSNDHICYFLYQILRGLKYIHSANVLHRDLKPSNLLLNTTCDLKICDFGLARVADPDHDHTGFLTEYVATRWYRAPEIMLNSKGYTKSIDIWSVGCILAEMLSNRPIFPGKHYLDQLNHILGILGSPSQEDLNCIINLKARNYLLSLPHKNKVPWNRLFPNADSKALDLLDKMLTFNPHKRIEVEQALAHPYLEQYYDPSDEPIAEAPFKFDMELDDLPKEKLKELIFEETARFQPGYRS

Row | Structure (SMILES) | Metabolic activity [MA] (HEK293T cells [1]) | ΔTm at 20 µM (TRIM24) [°C] | ΔTm at 20 µM (FGFR3) [°C] | Growth rate [GR] (HEK293T cells [2]) | EC50 (NR3C1 (GR)) [nM] | Necrosis induction [NI] (HEK293T cells [3]) | ΔTm at 20 µM (AURKA) [°C] | ΔTm at 20 µM (ABL1) [°C] | VP16 control [fold reporter gene activity] (Gal4-VP16) | ΔTm at 20 µM (CSNK1D) [°C] | ATF6 activity (tunicamycin-induced endoplasmic reticulum stress) [4] | activity at 1 µM [4] [%] | ΔTm at 20 µM (BRD4) [°C] | ΔTm at 20 µM (GSK3B) [°C] | Apoptosis induction [AI] (HEK293T cells [5]) | ΔTm at 20 µM (CDK2) [°C] | Mean NFκB response ([6]; 1 µM, 1,5 h) | Mean NFκB response ([6]; 1 µM, 4,5 h) | Mean NFκB response ([6]; 1 µM, 7,5 h) | Mean NFκB response ([6]; 1 µM, 10,5 h) | also measured
1 | COc1cccc([C@@H](Oc2ccc3c(cnn3-c3ccc(F)cc3)c2)[C@H](C)NC(=O)C(F)(F)F)c1 [AZD5423] | 1.02 and 1.00 and 0.98 and 1.07 and 1.09 and 0.99 and 1.14 and 1.15 | -2.31 | -1.62 | 0.81 and 2.24 and 0.71 and 1.01 and 0.62 and 1.06 and 0.88 and 0.60 and 1.03 and 2.44 | 0.9 ± 0.2 | 0.69 and 0.73 and 0.65 and 0.80 | -3.28 | -0.84 | 0.65 fold reporter gene activity and 0.98 fold reporter gene activity and 1.07 fold reporter gene activity | -5.6 | Consistently weaker ATF6 activity | 84 | -1.37 | 0.67 | 0.73 and 0.76 and 0.75 and 0.81 and 1.24 and 2.34 | -0.35 | 2076.25 GFP+-cells/confluence ∙ 1000 | 2908.84 GFP+-cells/confluence ∙ 1000 | 5573.87 GFP+-cells/confluence ∙ 1000 | 12373.33 GFP+-cells/confluence ∙ 1000 | Mean NFκB response ([6]; 1 µM, 13,5 h): 17196.67 GFP+-cells/confluence ∙ 1000; Mean NFκB response ([6]; 1 µM, 16,6 h): 21116.67 GFP+-cells/confluence ∙ 1000; Mean NFκB response ([6]; 1 µM, 19,5 h): 24016.67 GFP+-cells/confluence ∙ 1000; Mean NFκB response ([6]; 1 µM, 22,5 h): 27100.00 GFP+-cells/confluence ∙ 1000; Mean NFκB response ([6]; 1 µM, 3 h): 2386.46 GFP+-cells/confluence ∙ 1000; Mean NFκB response ([6]; 1 µM, 6 h): 3758.89 GFP+-cells/confluence ∙ 1000; Mean NFκB response ([6]; 1 µM, 9 h): 9073.33 GFP+-cells/confluence ∙ 1000; Mean NFκB response ([6]; 1 µM, 12 h): 14943.33 GFP+-cells/confluence ∙ 1000; Mean NFκB response ([6]; 1 µM, 15 h): 19223.33 GFP+-cells/confluence ∙ 1000; Mean NFκB response ([6]; 1 µM, 18 h): 22723.33 GFP+-cells/confluence ∙ 1000; Mean NFκB response ([6]; 1 µM, 21 h): 25420.00 GFP+-cells/confluence ∙ 1000; Mean NFκB response ([6]; 1 µM, 24 h): 27183.33 GFP+-cells/confluence ∙ 1000; NF-κB activity (inflammatory response to ionomycin/PMA) [6]: consistently delayed and strongly diminished NF-κB activity; ΔTm at 20 µM (MAPK1): -5.37 °C; ΔTm at 20 µM (BRPF1): -0.79 °C
2 | C[C@H]1C[C@H]2[C@@H]3CCC4=CC(=O)C=C[C@]4(C)[C@@]3(Cl)[C@@H](O)C[C@]2(C)[C@@]1(O)C(=O)CO [Beclomethasone] | 1.06 and 1.03 (2×) and 0.92 and 0.98 (2×) and 1.01 and 1.10 | -1.53 | -0.31 | 0.71 and 0.34 and 0.95 and 1.09 and 0.91 and 1.08 and 0.81 and 0.17 and 2.51 and -0.30 | 8 | 0.78 and 0.71 and 0.63 and 0.85 | 0.03 | -0.27 | 1.09 fold reporter gene activity and 0.87 fold reporter gene activity and 0.97 fold reporter gene activity | -0.04 | Consistently weaker ATF6 activity | 72 | -0.57 | -0.75 | 0.38 and 0.63 and 0.67 and 0.78 and 0.69 and 1.03 | -0.29 | 2314.11 GFP+-cells/confluence ∙ 1000 | 2712.93 GFP+-cells/confluence ∙ 1000 | 3902.54 GFP+-cells/confluence ∙ 1000 | 7904.68 GFP+-cells/confluence ∙ 1000 | Mean NFκB response ([6]; 1 µM, 13,5 h): 11292.34 GFP+-cells/confluence ∙ 1000; Mean NFκB response ([6]; 1 µM, 16,6 h): 14142.72 GFP+-cells/confluence ∙ 1000; Mean NFκB response ([6]; 1 µM, 19,5 h): 16024.63 GFP+-cells/confluence ∙ 1000; Mean NFκB response ([6]; 1 µM, 22,5 h): 18119.25 GFP+-cells/confluence ∙ 1000; Mean NFκB response ([6]; 1 µM, 3 h): 2367.97 GFP+-cells/confluence ∙ 1000; Mean NFκB response ([6]; 1 µM, 6 h): 3065.61 GFP+-cells/confluence ∙ 1000; Mean NFκB response ([6]; 1 µM, 9 h): 5609.44 GFP+-cells/confluence ∙ 1000; Mean NFκB response ([6]; 1 µM, 12 h): 9507.58 GFP+-cells/confluence ∙ 1000; Mean NFκB response ([6]; 1 µM, 15 h): 12732.70 GFP+-cells/confluence ∙ 1000; Mean NFκB response ([6]; 1 µM, 18 h): 14975.90 GFP+-cells/confluence ∙ 1000; Mean NFκB response ([6]; 1 µM, 21 h): 16981.30 GFP+-cells/confluence ∙ 1000; Mean NFκB response ([6]; 1 µM, 24 h): 19467.95 GFP+-cells/confluence ∙ 1000; NF-κB activity (inflammatory response to ionomycin/PMA) [6]: consistently delayed and strongly diminished NF-κB activity; ΔTm at 20 µM (MAPK1): 0.36 °C; ΔTm at 20 µM (BRPF1): -0.66 °C
